# Data: patent US20240174744A1, “METHODS OF TREATMENT USING PROTEIN BINDERS TO IRHOM2 EPITOPES” (SCIRHOM GMBH, priority 2021, published 2024)
# System: PMA-induced release of TGFα from PC3 cells
# Experiment: ELISA-based TGFα release assay, PMA-stimulated PC3 cells
# Format: cell-based
# Conditions: Homo sapiens, PC-3; recombinant murine antibodies 1 μg/ml; Batimastat 10 μM; PMA 25 ng/ml, 2 hours
# Procedure: In the following study, ELISA-based TGFα release assays were performed to analyze the inhibitory effects of the antibodies of the present disclosure on PMA-induced release of endogenous TGFα from human PC3 prostate cancer cells.
# In brief, on day 1, Nunc black MaxiSorp® 96-well plates (Thermo Fisher Scientific, USA) were coated overnight with 100 μl per well of goat anti-human TGFα capture antibody (provided as part of the DuoSet ELISA kit) at 0.4 μg/ml TBS at 4° C. On day 2, the capture antibody solution was removed and MaxiSorp® plates were blocked with 300 μl per well of TBS, 1% BSA at room temperature for 3 hours. […] Using an infinite M1000 (Tecan Group, Switzerland) microplate reader, the fluorescence of each well was collected at an excitation wavelength of 435 nm and an emission wavelength of 555 nm.
smiles,measurement,value
CNC(=O)[C@H](Cc1ccccc1)NC(=O)[C@H](CC(C)C)[C@H](CSc1cccs1)C(=O)NO [Batimastat],inhibition at 10 µM,99.1%
